Our source for the IC50 values is patent US12448392B2, “Spiropiperidine derivatives” (89BIO LTD, priority 2016, dated 2025).

For orientation: IC50 means the concentration that inhibits the measured activity by half.

Molecules are shown by their SMILES.

T1 sequence (P49327 whole entry): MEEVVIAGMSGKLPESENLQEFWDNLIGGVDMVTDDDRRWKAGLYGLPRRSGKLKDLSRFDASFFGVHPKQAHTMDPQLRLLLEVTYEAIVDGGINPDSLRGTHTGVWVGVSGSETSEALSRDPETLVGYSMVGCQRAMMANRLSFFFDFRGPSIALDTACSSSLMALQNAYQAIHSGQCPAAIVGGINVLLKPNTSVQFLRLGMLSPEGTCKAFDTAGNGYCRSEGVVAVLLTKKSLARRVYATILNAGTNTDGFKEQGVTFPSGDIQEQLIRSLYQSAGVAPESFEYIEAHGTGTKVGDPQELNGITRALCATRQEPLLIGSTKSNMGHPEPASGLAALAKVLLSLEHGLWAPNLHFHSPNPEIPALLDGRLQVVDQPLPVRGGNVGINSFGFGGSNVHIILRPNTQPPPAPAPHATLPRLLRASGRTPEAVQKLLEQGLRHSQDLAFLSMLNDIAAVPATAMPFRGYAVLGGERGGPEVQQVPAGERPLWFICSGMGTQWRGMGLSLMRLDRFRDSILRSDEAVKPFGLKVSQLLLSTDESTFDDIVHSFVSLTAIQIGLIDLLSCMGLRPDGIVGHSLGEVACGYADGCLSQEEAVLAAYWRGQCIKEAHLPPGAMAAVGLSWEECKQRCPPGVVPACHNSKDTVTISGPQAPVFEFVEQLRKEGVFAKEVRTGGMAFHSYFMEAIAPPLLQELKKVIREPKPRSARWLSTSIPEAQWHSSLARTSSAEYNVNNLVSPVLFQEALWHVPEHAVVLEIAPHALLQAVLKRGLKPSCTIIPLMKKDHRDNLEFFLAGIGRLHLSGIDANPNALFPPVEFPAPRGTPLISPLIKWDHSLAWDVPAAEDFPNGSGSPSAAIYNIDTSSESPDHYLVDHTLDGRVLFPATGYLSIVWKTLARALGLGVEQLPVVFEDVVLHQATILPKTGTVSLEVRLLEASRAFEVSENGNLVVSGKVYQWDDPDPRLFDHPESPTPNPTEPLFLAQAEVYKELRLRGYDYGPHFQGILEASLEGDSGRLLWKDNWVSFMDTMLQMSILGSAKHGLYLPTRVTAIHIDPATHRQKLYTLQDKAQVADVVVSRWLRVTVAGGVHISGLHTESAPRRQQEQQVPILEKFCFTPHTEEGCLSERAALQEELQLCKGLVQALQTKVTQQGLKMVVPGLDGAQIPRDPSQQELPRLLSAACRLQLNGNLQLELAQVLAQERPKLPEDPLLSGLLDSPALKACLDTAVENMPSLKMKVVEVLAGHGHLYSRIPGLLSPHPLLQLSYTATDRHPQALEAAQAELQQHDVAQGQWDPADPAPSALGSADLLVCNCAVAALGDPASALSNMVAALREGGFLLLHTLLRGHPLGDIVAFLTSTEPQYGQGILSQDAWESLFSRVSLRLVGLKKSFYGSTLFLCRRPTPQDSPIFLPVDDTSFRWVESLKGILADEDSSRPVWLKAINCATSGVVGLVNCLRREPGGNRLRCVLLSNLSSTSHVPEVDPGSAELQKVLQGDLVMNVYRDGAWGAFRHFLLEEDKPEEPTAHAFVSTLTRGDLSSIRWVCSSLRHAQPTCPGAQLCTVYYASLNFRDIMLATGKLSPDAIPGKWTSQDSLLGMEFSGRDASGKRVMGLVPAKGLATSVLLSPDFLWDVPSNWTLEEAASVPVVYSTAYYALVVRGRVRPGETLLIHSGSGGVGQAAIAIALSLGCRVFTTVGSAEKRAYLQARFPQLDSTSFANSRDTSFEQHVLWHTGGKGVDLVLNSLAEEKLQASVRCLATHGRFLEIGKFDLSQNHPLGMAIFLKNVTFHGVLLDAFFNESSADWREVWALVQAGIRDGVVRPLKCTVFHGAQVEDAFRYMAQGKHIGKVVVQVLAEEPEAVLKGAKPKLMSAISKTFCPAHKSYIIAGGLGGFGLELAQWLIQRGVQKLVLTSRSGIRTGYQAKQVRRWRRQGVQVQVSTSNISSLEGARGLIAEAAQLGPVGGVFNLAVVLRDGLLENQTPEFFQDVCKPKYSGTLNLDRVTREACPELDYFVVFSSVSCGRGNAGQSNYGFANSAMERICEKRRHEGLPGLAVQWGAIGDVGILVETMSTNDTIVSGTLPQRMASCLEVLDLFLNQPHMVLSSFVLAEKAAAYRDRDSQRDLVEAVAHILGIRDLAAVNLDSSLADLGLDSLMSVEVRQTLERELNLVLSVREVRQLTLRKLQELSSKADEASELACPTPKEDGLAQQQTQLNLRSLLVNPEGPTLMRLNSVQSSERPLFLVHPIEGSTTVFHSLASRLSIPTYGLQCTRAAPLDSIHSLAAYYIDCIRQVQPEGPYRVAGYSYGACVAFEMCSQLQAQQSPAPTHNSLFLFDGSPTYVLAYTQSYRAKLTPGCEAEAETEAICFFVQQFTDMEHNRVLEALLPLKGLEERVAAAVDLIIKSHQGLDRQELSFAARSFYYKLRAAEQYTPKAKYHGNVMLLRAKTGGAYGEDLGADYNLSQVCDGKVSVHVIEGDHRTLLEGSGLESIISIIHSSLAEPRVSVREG

The first assay addresses T1, recombinant human baculovirus-expressed GST-tagged FASN (Homo sapiens, UniProt P49327).
T1 construct: GST
As to the kind of experiment: biochemical.
Details: not given
For `COc1c(-c2ccc3c(c2)COC2(CCN(C(N)=O)CC2)O3)ccc2cccnc12` [Example 174, 6-(8-Methoxy-7-quinolyl)spiro[4H-1,3-benzodioxine-2,4′-piperidine]-1′-carboxamide], the IC50 fell in the range of 1 to 99 nM. For the compound `CCOC(=O)N1CCC2(CC1)OCc1cc(-c3ccc4cccnc4c3OC)ccc1O2` [Example 176, Ethyl 6-(8-methoxy-7-quinolyl)spiro[4H-1,3-benzodioxine-2,4′-piperidine]-1′-carboxylate], the IC50 was in the range of 100 to 999 nM. On to `Cc1nccc2cc(-c3ccc4c(c3)COC3(CCN(C(=O)NOC(C)C)CC3)O4)ccc12` [Example 182, N-Isopropoxy-6-(1-methyl-6-isoquinolyl)spiro[4H-1,3-benzodioxine-2,4′-piperidine]-1′-carboxamide], for which the IC50 fell in the range of 1 to 99 nM.

Still in this assay, the particulars now being: 5 nM FASN, 150 μM NADPH, 10 μM acetyl-CoA, 25 μM malonyl-CoA, 90 minutes incubation; read-out: IC50 data for Compounds of Formula I, Activity.
Regarding `O=C(NO)N1CCC2(CCc3cc(-c4cc5ccccc5cn4)ccc3O2)CC1` [Example 151, 6-(3-Isoquinolyl)spiro[chromane-2,4′-piperidine]-1′-carbohydroxamic acid], the IC50 lay in the range of 1000 to 10000 nM. Consider `Cc1c(-c2ccc3c(c2)CC2(CCN(C(N)=O)CC2)O3)ccc2cccnc12` [Example 152, 5-(8-Methyl-7-quinolyl)spiro[3H-benzofuran-2,4′-piperidine]-1′-carboxamide], for which the IC50 is 1 to 99 nM. Same read-out and setting: the same measure for `CONC(=O)N1CCC2(CC1)Cc1cc(-c3ccc4cccnc4c3C)ccc1O2` [Example 153, N-Methoxy-5-(8-methyl-7-quinolyl)spiro[3H-benzofuran-2,4′-piperidine]-1′-carboxamide]: 1000 to 10000 nM.

Turning to `CCONC(=O)N1CCC2(CC1)Cc1cc(-c3ccc4cccnc4c3C)ccc1O2` [Example 154, N-Ethoxy-5-(8-methyl-7-quinolyl)spiro[3H-benzofuran-2,4′-piperidine]-1′-carboxamide], the IC50 fell in the range of 1000 to 10000 nM. For `Cc1c(-c2ccc3c(c2)CC2(CCN(C(=O)NO)CC2)O3)ccc2cccnc12` [Example 155, 5-(8-Methyl-7-quinolyl)spiro[3H-benzofuran-2,4′-piperidine]-1′-carbohydroxamic acid], the IC50 lay within 1000 to 10000 nM. As to `CCNC(=O)N1CCC2(CC1)Cc1cc(-c3ccc4cccnc4c3C)ccc1O2` [Example 156, N-Ethyl-5-(8-methyl-7-quinolyl)spiro[3H-benzofuran-2,4′-piperidine]-1′-carboxamide], the IC50 lay in the range of 1000 to 10000 nM.

Regarding `CONC(=O)N1CCC2(CC1)Cc1cc(-c3cnc4ccccc4c3C)ccc1O2` [Example 157, N-Methoxy-5-(4-methyl-3-quinolyl)spiro[3H-benzofuran-2,4′-piperidine]-1′-carboxamide], the IC50 lay within 1000 to 10000 nM. As to `CCONC(=O)N1CCC2(CC1)Cc1cc(-c3cnc4ccccc4c3C)ccc1O2` [Example 158, N-ethoxy-5-(4-methyl-3-quinolyl)spiro[3H-benzofuran-2,4′-piperidine]-1′-carboxamide], the IC50 was 1000 to 10000 nM.

In the case of `Cc1c(-c2ccc3c(c2)CC2(CCN(C(N)=O)CC2)O3)cnc2ccccc12` [Example 159, 5-(4-Methyl-3-quinolyl)spiro[3H-benzofuran-2,4′-piperidine]-1′-carboxamide], the IC50 fell in the range of 1000 to 10000 nM.

On to `CCNC(=O)N1CCC2(CC1)Cc1cc(-c3cnc4ccccc4c3C)ccc1O2` [Example 160, N-Ethyl-5-(4-methyl-3-quinolyl)spiro[3H-benzofuran-2,4′-piperidine]-1′-carboxamide], for which the IC50 lay within 1000 to 10000 nM.

Turning to `Cc1c(-c2ccc3c(c2)CC2(CCN(C(=O)NO)CC2)O3)cnc2ccccc12` [Example 161, 5-(4-Methyl-3-quinolyl)spiro[3H-benzofuran-2,4′-piperidine]-1′-carbohydroxamic acid], the IC50 was 1000 to 10000 nM. Still for that read-out and setting: the same measure for `COc1c(-c2ccc3c(c2)CC2(CCN(C(N)=O)CC2)O3)ccc2cccnc12` [Example 162, 5-(8-Methoxy-7-quinolyl)spiro[3H-benzofuran-2,4′-piperidine]-1′-carboxamide]: 1000 to 10000 nM. With `CCNC(=O)N1CCC2(CC1)Cc1cc(-c3ccc4cccnc4c3OC)ccc1O2` [Example 163, N-Ethyl-5-(8-methoxy-7-quinolyl)spiro[3H-benzofuran-2,4′-piperidine]-1′-carboxamide], the IC50 was in the range of 1000 to 10000 nM. The same measure, in the same setting: the value for `Cc1c(-c2ccc3c(c2)CC2(CCN(C(N)=O)CC2)O3)ccc2ccnn12` [Example 164, 5-(7-Methylpyrazolo[1,5-a]pyridin-6-yl)spiro[3H-benzofuran-2,4′-piperidine]-1′-carboxamide] was 1000 to 10000 nM; that for `CCNC(=O)N1CCC2(CC1)Cc1cc(-c3ccc4ccnn4c3C)ccc1O2` [Example 165, N-Ethyl-5-(7-methylpyrazolo[1,5-a]pyridin-6-yl)spiro[3H-benzofuran-2,4′-piperidine]-1′-carboxamide] was 1000 to 10000 nM.

Turning to `CONC(=O)N1CCC2(CC1)Cc1cc(-c3ccc4cccnc4c3OC)ccc1O2` [Example 166, N-Methoxy-5-(8-methoxy-7-quinolyl)spiro[3H-benzofuran-2,4′-piperidine]-1′-carboxamide], the IC50 fell in the range of 1000 to 10000 nM. On the same count and under the same terms, the value for `CCONC(=O)N1CCC2(CC1)Cc1cc(-c3ccc4cccnc4c3OC)ccc1O2` [Example 167, N-Ethoxy-5-(8-methoxy-7-quinolyl)spiro[3H-benzofuran-2,4′-piperidine]-1′-carboxamide] was 1000 to 10000 nM. Turning to `COc1c(-c2ccc3c(c2)CC2(CCN(C(=O)NOC4CCCCO4)CC2)O3)ccc2cccnc12` (centres unmarked) [Example 168, 5-(8-Methoxy-7-quinolyl)-N-tetrahydropyran-2-yloxy-spiro[3H-benzofuran-2,4′-piperidine]-1′-carboxamide], the IC50 lay in the range of 1000 to 10000 nM. Still for that read-out and setting: the same measure for `CCONC(=O)N1CCC2(CC1)Cc1cc(-c3ccc4ccnn4c3C)ccc1O2` [Example 169, N-Ethoxy-5-(7-methylpyrazolo[1,5-a]pyridin-6-yl)spiro[3H-benzofuran-2,4′-piperidine]-1′-carboxamide]: 1000 to 10000 nM; for `CONC(=O)N1CCC2(CC1)Cc1cc(-c3ccc4ccnn4c3C)ccc1O2` [Example 170, N-Methoxy-5-(7-methylpyrazolo[1,5-a]pyridin-6-yl)spiro[3H-benzofuran-2,4′-piperidine]-1′-carboxamide]: 1000 to 10000 nM; for `Cc1c(-c2ccc3c(c2)CC2(CCN(C(=O)NOC4CCCCO4)CC2)O3)ccc2ccnn12` (centres unmarked) [Example 171, 5-(7-Methylpyrazolo[1,5-a]pyridin-6-yl)-N-tetrahydropyran-2-yloxy-spiro[3H-benzofuran-2,4′-piperidine]-1′-carboxamide]: 1000 to 10000 nM.

For `Cc1c(-c2ccc3c(c2)CCC2(CCN(C(N)=O)CC2)O3)ccc2ccc(=O)[nH]c12` [Example 172, 6-(8-Methyl-2-oxo-1H-quinolin-7-yl)spiro[chromane-2,4′-piperidine]-1′-carboxamide], the IC50 was in the range of 1000 to 10000 nM. The same measure, in the same setting: the same measure for `COc1c(-c2ccc3c(c2)CC2(CCN(C(=O)NO)CC2)O3)ccc2cccnc12` [Example 173, 5-(8-Methoxy-7-quinolyl)spiro[3H-benzofuran-2,4′-piperidine]-1′-carbohydroxamic acid]: 1000 to 10000 nM; for `COc1c(-c2ccc3c(c2)CCC2(CCN(C(N)=O)CC2)O3)ccc2cccnc12` [Example 175, 6-(8-Methoxy-7-quinolyl)spiro[chromane-2,4′-piperidine]-1′-carboxamide]: 1 to 99 nM; for `CC(C)CNC(=O)N1CCC2(CCc3cc(-c4ccc5nccn5c4Cl)ccc3O2)CC1` [Example 177, 6-(5-Chloroimidazo[1,2-a]pyridin-6-yl)-N-isobutyl-spiro[chromane-2,4′-piperidine]-1′-carboxamide]: 1 to 99 nM. For `Cc1nccc2cc(-c3ccc4c(c3)CCC3(CCN(C(=O)NCC(C)C)CC3)O4)ccc12` [Example 178, N-Isobutyl-6-(1-methyl-6-isoquinolyl)spiro[chromane-2,4′-piperidine]-1′-carboxamide], the IC50 was in the range of 1 to 99 nM. As for `CC(C)ONC(=O)N1CCC2(CCc3cc(-c4ccc5nccn5c4Cl)ccc3O2)CC1` [Example 179, 6-(5-Chloroimidazo[1,2-a]pyridin-6-yl)-N-isopropoxy-spiro[chromane-2,4′-piperidine]-1′-carboxamide], the IC50 lay within 1 to 99 nM. Still for that read-out and setting: the value for `Cc1nccc2cc(-c3ccc4c(c3)CCC3(CCN(C(=O)NOC(C)C)CC3)O4)ccc12` [Example 180, N-Isopropoxy-6-(1-methyl-6-isoquinolyl)spiro[chromane-2,4′-piperidine]-1′-carboxamide] was 1 to 99 nM; that for `CCONC(=O)N1CCC2(CCc3cc(-c4cnc5ccccc5c4C)ccc3O2)CC1` [Example 181, N-Ethoxy-6-(4-methyl-3-quinolyl)spiro[chromane-2,4′-piperidine]-1′-carboxamide] was 1 to 99 nM. As for `Cc1nccc2cc(-c3ccc4c(c3)CCC3(CCN(C(N)=O)CC3)O4)ccc12` [Example 183, 6-(1-Methyl-6-isoquinolyl)spiro[chromane-2,4′-piperidine]-1′-carboxamide], the IC50 lay within 100 to 999 nM.

Consider `CONC(=O)N1CCC2(CCc3cc(-c4ccc5c(C)nccc5c4)ccc3O2)CC1` [Example 184, N-methoxy-6-(1-methyl-6-isoquinolyl)spiro[chromane-2,4′-piperidine]-1′-carboxamide], for which the half-maximal inhibitory concentration (IC50) was in the range of 1 to 99 nM. Same read-out and setting: the same measure for `CCONC(=O)N1CCC2(CCc3cc(-c4ccc5c(C)nccc5c4)ccc3O2)CC1` [Example 185, N-ethoxy-6-(1-methyl-6-isoquinolyl)spiro[chromane-2,4′-piperidine]-1′-carboxamide]: 1 to 99 nM; for `CCCONC(=O)N1CCC2(CCc3cc(-c4ccc5c(C)nccc5c4)ccc3O2)CC1` [Example 186, 6-(1-Methyl-6-isoquinolyl)-N-propoxy-spiro[chromane-2,4′-piperidine]-1′-carboxamide]: 1 to 99 nM. In the case of `CCNC(=O)N1CCC2(CCc3cc(-c4ccc5c(C)nccc5c4)ccc3O2)CC1` [Example 187, N-Ethyl-6-(1-methyl-6-isoquinolyl)spiro[chromane-2,4′-piperidine]-1′-carboxamide], the IC50 was in the range of 1 to 99 nM.

Turning to `CCCNC(=O)N1CCC2(CCc3cc(-c4ccc5c(C)nccc5c4)ccc3O2)CC1` [Example 188, 6-(1-methyl-6-isoquinolyl)-N-propyl-spiro[chromane-2,4′-piperidine]-1′-carboxamide], the IC50 was 1 to 99 nM.
